Results published in PubChem BioAssay (NCI).
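Where inhibition never reached the appropriate level, the endpoint shown equals the highest concentration tested. Otherwise, values were interpolated linearly from a five-concentration, 48-hour dose response in 96-well plates. The concentration for 50% growth inhibition is given as GI50. TGI: concentration producing complete growth inhibition.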

Experiments:
Experiment in all cases: NCI-60 cell line screen, 48 h
HCT-15 colon = system: HCT-15 colon
SNB-75 CNS = system: SNB-75 CNS
HT29 colon = system: HT29 colon
EKVX NSCLC = system: EKVX NSCLC
NCI-H23 lung = system: NCI-H23 lung
SF-539 CNS = system: SF-539 CNS
HCC-2998 colon = system: HCC-2998 colon
NCI-H460 lung = system: NCI-H460 lung
HCT-116 colon = system: HCT-116 colon

## c1ccc(-c2nn(-c3ccccc3)[n+](-c3ccccc3)n2)cc1
HCT-15 colon
  TGI: > 100 µM
SNB-75 CNS
  TGI: > 100 µM
HT29 colon
  TGI: > 100 µM
EKVX NSCLC
  TGI: > 43 µM
NCI-H23 lung
  TGI: 28.3 µM
SF-539 CNS
  TGI: > 100 µM
HCC-2998 colon
  TGI: 23.7 µM
NCI-H460 lung
  TGI: > 100 µM
HCT-116 colon
  TGI: > 56.7 µM

## CCOC(=O)CCC(NC(=O)c1ccc(N2CCN(c3c(C)nc(N)nc3N)CC2)cc1)C(=O)OCC (stereo not drawn)
HCT-15 colon
  TGI: > 100 µM
SNB-75 CNS
  TGI: > 100 µM
HT29 colon
  TGI: > 100 µM
EKVX NSCLC
  TGI: > 100 µM
NCI-H23 lung
  TGI: > 100 µM
SF-539 CNS
  TGI: > 100 µM
HCC-2998 colon
  TGI: > 100 µM
NCI-H460 lung
  TGI: 96.9 µM
HCT-116 colon
  TGI: > 100 µM

## COc1ccccc1N1CCN(Cn2c(=O)oc3cccnc32)CC1
HCT-15 colon
  TGI: > 100 µM
SNB-75 CNS
  TGI: > 100 µM
HT29 colon
  TGI: > 100 µM
EKVX NSCLC
  TGI: > 100 µM
NCI-H23 lung
  TGI: > 100 µM
SF-539 CNS
  TGI: > 100 µM
HCC-2998 colon
  TGI: > 100 µM
NCI-H460 lung
  TGI: > 100 µM
HCT-116 colon
  TGI: > 100 µM

## O=C(N/N=C\c1ccc2ccccc2c1)Nc1ccc([N+](=O)[O-])cc1
HCT-15 colon
  TGI: > 72.6 µM
SNB-75 CNS
  TGI: > 100 µM
HT29 colon
  TGI: > 75.6 µM
EKVX NSCLC
  TGI: > 100 µM
NCI-H23 lung
  TGI: > 72.3 µM
SF-539 CNS
  TGI: > 69.7 µM
HCC-2998 colon
  TGI: > 63.3 µM
NCI-H460 lung
  TGI: > 65.1 µM
HCT-116 colon
  TGI: > 59 µM

## C[C@H](O)C1CC(Cn2nnc3c(N)ncnc32)C1(C)C (stereo partly drawn)
HCT-15 colon
  TGI: > 100 µM
SNB-75 CNS
  TGI: > 100 µM
EKVX NSCLC
  TGI: > 100 µM
SF-539 CNS
  TGI: > 100 µM
HCC-2998 colon
  TGI: > 100 µM
HCT-116 colon
  TGI: > 100 µM

## N#CC1(C#N)NC(c2ccsc2)C(C#N)(C#N)NC1c1ccsc1 (stereo not drawn)
HCT-15 colon
  TGI: > 100 µM
SNB-75 CNS
  TGI: > 100 µM
HT29 colon
  TGI: > 100 µM
EKVX NSCLC
  TGI: > 100 µM
NCI-H23 lung
  TGI: > 100 µM
SF-539 CNS
  TGI: > 100 µM
HCC-2998 colon
  TGI: > 100 µM
NCI-H460 lung
  TGI: > 100 µM
HCT-116 colon
  TGI: > 100 µM

## O=C(CSCC(=O)N/N=C\c1ccc(-c2ccccc2)cc1)N/N=C\c1ccc(-c2ccccc2)cc1
HCT-15 colon
  TGI: > 100 µM
SNB-75 CNS
  TGI: 41.6 µM
HT29 colon
  TGI: 76.6 µM
EKVX NSCLC
  TGI: > 100 µM
NCI-H23 lung
  TGI: 35.4 µM
SF-539 CNS
  TGI: 37.9 µM
NCI-H460 lung
  TGI: > 100 µM
HCT-116 colon
  TGI: 21.4 µM

## COc1ccc2c(c1)c1c(n2CCN2CCCCC2)-c2ccccc2CC1
HCT-15 colon
  TGI: 24.5 µM
SNB-75 CNS
  TGI: 35.1 µM
HT29 colon
  TGI: 17.2 µM
EKVX NSCLC
  TGI: 36.7 µM
NCI-H23 lung
  TGI: 31.9 µM
SF-539 CNS
  TGI: 27.4 µM
HCC-2998 colon
  TGI: 20.7 µM
NCI-H460 lung
  TGI: 28.3 µM
HCT-116 colon
  TGI: 31 µM

## COC(=O)/N=[N+](\[O-])C(c1ccc(OC)cc1)C1CCCCC1 (stereo not drawn)
HCT-15 colon
  TGI: 23.5 µM
SNB-75 CNS
  TGI: 20.8 µM
HT29 colon
  TGI: 5.62 µM
EKVX NSCLC
  TGI: > 44.1 µM
NCI-H23 lung
  TGI: 22.6 µM
SF-539 CNS
  TGI: > 48.3 µM
HCC-2998 colon
  TGI: 16.1 µM
NCI-H460 lung
  TGI: 7.98 µM
HCT-116 colon
  TGI: 4.41 µM

## Cn1c2ccccc2c(=NNc2ccc(C(=O)O)cc2)c2ccccc21
HCT-15 colon
  TGI: 38.9 µM
SNB-75 CNS
  TGI: 56.5 µM
HT29 colon
  TGI: 32.3 µM
EKVX NSCLC
  TGI: 32.2 µM
NCI-H23 lung
  TGI: 57.8 µM
SF-539 CNS
  TGI: 49.9 µM
HCC-2998 colon
  TGI: 24.9 µM
NCI-H460 lung
  TGI: 43.5 µM
HCT-116 colon
  TGI: 34.5 µM

## OC1COC(n2c3ccc(Br)cc3c3ccc4c5ccccc5[nH]c4c32)C(O)C1O (stereo not drawn)
HCT-15 colon
  TGI: 15.7 µM
SNB-75 CNS
  TGI: 14.3 µM
HT29 colon
  TGI: 11.4 µM
EKVX NSCLC
  TGI: 17.3 µM
NCI-H23 lung
  TGI: 12 µM
SF-539 CNS
  TGI: 16.2 µM
HCC-2998 colon
  TGI: 11.4 µM
NCI-H460 lung
  TGI: 18.6 µM
HCT-116 colon
  TGI: 12 µM

## CCN(CC)C(=S)SS(=O)(=O)c1ccc([N+](=O)[O-])cc1
HCT-15 colon
  GI50: 52.7 µM
  TGI: > 100 µM
HT29 colon
  GI50: 22 µM
  TGI: 64.7 µM
EKVX NSCLC
  TGI: > 100 µM
NCI-H23 lung
  TGI: > 100 µM
SF-539 CNS
  TGI: 40 µM
HCC-2998 colon
  GI50: 93.7 µM
  TGI: > 100 µM
NCI-H460 lung
  TGI: > 100 µM

## CCC1C(c2cc(OC)c(OC)c(OC)c2)c2cc3c(cc2OC1N1CCOCC1)OCO3 (stereo not drawn)
HCT-15 colon
  TGI: > 100 µM
SNB-75 CNS
  TGI: 26.3 µM
HT29 colon
  TGI: 7.36 µM
EKVX NSCLC
  TGI: 54.1 µM
NCI-H460 lung
  TGI: 12.3 µM
HCT-116 colon
  TGI: 13.4 µM

## C(=C\C(SCc1ccccc1)SCc1ccccc1)/c1ccccc1
HCT-15 colon
  TGI: > 10 µM
SNB-75 CNS
  TGI: > 10 µM
HT29 colon
  TGI: > 10 µM
EKVX NSCLC
  TGI: > 10 µM
NCI-H23 lung
  TGI: > 10 µM
SF-539 CNS
  TGI: > 10 µM
HCC-2998 colon
  TGI: > 10 µM
NCI-H460 lung
  TGI: > 10 µM
HCT-116 colon
  TGI: > 10 µM

## Nc1nc(Cl)cc(Nc2cc(Cl)cc(Cl)c2)n1
HCT-15 colon
  TGI: 42.6 µM
SNB-75 CNS
  TGI: 39.5 µM
HT29 colon
  TGI: 30.6 µM
EKVX NSCLC
  TGI: 45.7 µM
NCI-H23 lung
  TGI: 48.6 µM
SF-539 CNS
  TGI: 33.9 µM
HCC-2998 colon
  TGI: 32.8 µM
NCI-H460 lung
  TGI: 32.1 µM
HCT-116 colon
  TGI: 33.3 µM

## CCOC(=O)C(NC(=O)Nc1ccc(Cl)c(Cl)c1)C(F)(F)F (stereo not drawn)
HCT-15 colon
  TGI: > 100 µM
SNB-75 CNS
  TGI: > 100 µM
HT29 colon
  TGI: > 100 µM
EKVX NSCLC
  TGI: > 100 µM
NCI-H23 lung
  TGI: > 100 µM
SF-539 CNS
  TGI: > 100 µM
HCC-2998 colon
  TGI: > 100 µM
HCT-116 colon
  TGI: > 100 µM

## COc1ccc(CCNC(=O)Cc2cc(OC)c(OC)cc2CO)cc1OC
HCT-15 colon
  TGI: > 100 µM
SNB-75 CNS
  TGI: > 100 µM
HT29 colon
  TGI: > 100 µM
EKVX NSCLC
  TGI: > 100 µM
NCI-H23 lung
  TGI: > 100 µM
SF-539 CNS
  TGI: > 100 µM
HCC-2998 colon
  TGI: > 100 µM
NCI-H460 lung
  TGI: > 100 µM
HCT-116 colon
  TGI: > 100 µM

## Cc1cccc(NC(=S)N=Nc2c(O)[nH]c3ccccc23)c1
HCT-15 colon
  TGI: > 100 µM
SNB-75 CNS
  TGI: > 100 µM
HT29 colon
  TGI: > 100 µM
EKVX NSCLC
  TGI: > 100 µM
NCI-H23 lung
  TGI: > 100 µM
SF-539 CNS
  TGI: > 100 µM
HCC-2998 colon
  TGI: > 100 µM
NCI-H460 lung
  TGI: > 100 µM
HCT-116 colon
  TGI: > 100 µM

## CSc1ccc(/C=C2\N=C(c3ccccc3)N(c3nc4ccc(Sc5ccccc5)cc4[nH]3)C2=O)cc1
HCT-15 colon
  TGI: > 86.2 µM
SNB-75 CNS
  TGI: 45.6 µM
HT29 colon
  TGI: 50.4 µM
EKVX NSCLC
  TGI: > 100 µM
NCI-H23 lung
  TGI: > 94.5 µM
SF-539 CNS
  GI50: 15 µM
  TGI: 32.5 µM
HCC-2998 colon
  TGI: 38.2 µM
NCI-H460 lung
  TGI: 61.3 µM
HCT-116 colon
  TGI: 48.5 µM

## CNC1=CC(=O)C2=C(C1=O)[C@H]1CC[C@]3(C)C(=O)CC[C@H]3[C@@H]1CC2
HCT-15 colon
  TGI: 27.5 µM
SNB-75 CNS
  TGI: 27.8 µM
EKVX NSCLC
  TGI: 29.9 µM
NCI-H23 lung
  TGI: 19.9 µM
SF-539 CNS
  TGI: 32.3 µM
HCC-2998 colon
  TGI: 31.7 µM
NCI-H460 lung
  TGI: 39.5 µM
HCT-116 colon
  TGI: 35.7 µM

## CN(C)c1ccc(/C=C/C=C(/C#N)c2ccccc2)cc1
HCT-15 colon
  TGI: > 100 µM
SNB-75 CNS
  TGI: 76 µM
HT29 colon
  TGI: 40.6 µM
EKVX NSCLC
  TGI: > 100 µM
NCI-H23 lung
  TGI: 97.6 µM
SF-539 CNS
  TGI: 64.7 µM
HCC-2998 colon
  TGI: > 85.3 µM
NCI-H460 lung
  TGI: 83.7 µM
HCT-116 colon
  TGI: > 77 µM

## COC(=O)c1cc(C#Cc2cc(OC)ccc2OC)ccc1OC
HCT-15 colon
  TGI: > 100 µM
SNB-75 CNS
  TGI: > 100 µM
HT29 colon
  TGI: > 100 µM
EKVX NSCLC
  TGI: > 100 µM
NCI-H23 lung
  TGI: > 100 µM
SF-539 CNS
  GI50: 81.1 µM
  TGI: > 100 µM
HCC-2998 colon
  TGI: > 100 µM
NCI-H460 lung
  TGI: > 100 µM
HCT-116 colon
  GI50: 37.7 µM
  TGI: > 100 µM
